PMC3929365, “Benzimidazoisoquinolines: A New Class of Rapidly Metabolized Aryl Hydrocarbon Receptor (AhR) Ligands that Induce AhR-Dependent Tregs and Prevent Murine Graft-Versus-Host Disease” (PLoS ONE, 2014)

Experiments:
AhR = test: Electrophoretic mobility shift assay, binding of AhR to XRE; format: biochemical, mouse; details: 10 nM, 2 h, Hepa1c1c7 whole cell lysate
Protocol: Figure 1 10-Cl-BBQ is a potent AhR ligand. A) Structure of 10-Cl-BBQ. […] C) Hepa-1 cells expressing endogenous AhR were transfected with an AhR-regulated luciferase reporter gene (xenobiotic responsive element (XRE)-MMTVpromoter-Luc) and the reporter gene activity was measured after 12 h of treatment with 1 nM TCDD or the indicated concentrations of 10-Cl-BBQ. D) Alteration in proteolytic pattern of AhR by 10-Cl-BBQ. Whole cell lysate (45 µg of protein) from mouse hepatoma Hepa1c1c7 cells was incubated with 100 nM 10-Cl-BBQ or 0.1% DMSO for 1 h at RT and proteolyzed by 1 µg/ml subtilisin for 1, 2, 4, and 8 min at RT. Proteolytic cleavage products of AhR were analyzed by immunoblot. E) Electrophoretic mobility shift assay showing the ligand-stimulated binding of AhR to XRE. Whole cell lysate (18 µg of protein) from mouse hepatoma Hepa1c1c7 cells was incubated with 10 nM 10-Cl-BBQ or 0.1% DMSO for 2 h at room temperature and ^32P-labeled oligonucleotide containing XRE for 20 min at room temperature. The samples were electrophoresed on a native polyacrylamide gel and the signal was visualized by Phosphor Imager. Unlabeled competitor XRE or antibody (Ab) against AhR or Arnt was co-incubated with ^32P-labeled oligonucleotide.

donor CD4+ T cells = test: AhR-Treg phenotype of alloactivated donor CD4+ T cells 48 h after initiating the GVH response; format: in vivo, B6D2F1 host mice
Protocol: Splenocytes and lymphocytes were harvested from C57Bl/6 mice. In some experiments, T cells were purified by negative selection using a Pan-T kit (Miltenyi Biotec) and stained with 2 µM carboxyfluorescein succinimidyl ester (CFSE) (Life Technologies). At least 2×10^7 purified T cells or approximately 1×10^8 pooled splenocytes and lymphocytes were injected i.v. into B6D2F1 host mice to initiate the GVH response. GVHD pathology was assessed on a scale of 0 to 3 (0 = normal, 1 = moderate morbidity, 2 = severe morbidity, 3 = death) according to the following five criteria: weight-loss, posture, activity, fur texture and death and reported as a Clinical GVHD Score.
Host mice were treated daily with vehicle, 10-Cl-BBQ or BBQ analogues by i.p. injection. The vehicle consisted of a mixture of 6.7% anisole and peanut oil. Mice treated with a single i.p. dose of 15 µg TCDD/kg body weight in the same vehicle were used as positive controls.
Antibodies to CTLA-4, Foxp3, ICOS, CD62L, CD25, CD19, CD44) and a fixable viability dye were purchased from eBiosciences. Additional antibody reagents included CD4 and CD8 (Life Technologies); H-2D^d (Biolegend) and CD45RB (PharMingen). After surface staining, the cells were fixed and permeabilized with Cytofix/cytoperm (BD Biosciences) for intracellular CTLA-4 stain. The flow cytometry data were acquired on an FC500 instrument (Beckman Coulter) and the data were analyzed using WinList 7.0 (Verity Software House). Fluorescence minus one (FMO) controls were used for setting histogram gates during the analysis.
Figure 3 10-Cl-BBQ induces an AhR-dependent Treg phenotype 48 h after initiating the GVH response. On day 0, B6D2F1 host mice in groups of 5 were injected with CFSE-labeled C57Bl/6 T cells and given 15 mg/kg 10-Cl-BBQ, 15 µg/kg TCDD or vehicle by i.p. injection. At 24 h, an additional dose of 7 mg/kg 10-Cl-BBQ or vehicle was given. […] Treatment mean ± SEM is shown in the quadrant of interest. […] C) AhR-dependent induction of the donor Treg phenotype by 10-Cl-BBQ. On day 0, B6D2F1 host mice in groups of 5 were injected with donor T cells obtained from AhR^+/+ or AhR^−/− C57Bl/6 mice. Host mice were treated with 2 mg/kg10-Cl-BBQ or vehicle immediately following donor cell transfer and again at 24 hr. […] D) Dose-dependent induction of Treg phenotype by 10-Cl-BBQ. On day 0, B6D2F1 host mice in groups of 3–5 were injected with C57Bl/6 T cells. Mice were immediately treated with 0, 0.4, 2 or 10 mg/kg 10-Cl-BBQ and again on day 1. On day 2, expression of markers associated with the AhR-Treg phenotype increased as the dose of 10-Cl-BBQ increased. E) In the same mice as in D, lymph nodes were harvested and analyzed for expression of genes that were previously shown to increase under the same GVH conditions with TCDD treatment (13). […] Changes in gene expression were calculated relative to the β-actin gene, and the fold-induction was calculated by the ΔΔCt method using the vehicle-treated samples as a control. * = p<0.05 relative to vehicle treatment. […]

In the case of `O=c1c2cccc3cccc(c32)c2nc3ccc(Cl)cc3n12` [10-Cl-BBQ, 10-chloro-7H-benzimidazo[2,1-a]benzo[de]isoquinolin-7-one], the “DNA binding of AhR (XRE)” value (AhR) is reported as “specifically induced DNA binding of AhR”, the “changes in parameters associated with AhR-Tregs” value (donor CD4+ T cells; 0.4 mg/kg/day for two days) is reported as “failed to induce significant changes” and the “induction of the Treg phenotype with AhR-deficient donor T cells” value (donor CD4+ T cells; AhR−/− donor T cells, 2 mg/kg at 0 and 24 hr, day 2) is reported as “failed to induce the Treg phenotype”. The “minimum effective dose to induce Tregs” value (donor CD4+ T cells; i.p. for two days after initiation of the GVH response) was 2.0 mg/kg/day.
